Molecular target: T1, neutrophil elastase (Homo sapiens, UniProt P08246)
T1 sequence (P08246 30-247 limits assumed): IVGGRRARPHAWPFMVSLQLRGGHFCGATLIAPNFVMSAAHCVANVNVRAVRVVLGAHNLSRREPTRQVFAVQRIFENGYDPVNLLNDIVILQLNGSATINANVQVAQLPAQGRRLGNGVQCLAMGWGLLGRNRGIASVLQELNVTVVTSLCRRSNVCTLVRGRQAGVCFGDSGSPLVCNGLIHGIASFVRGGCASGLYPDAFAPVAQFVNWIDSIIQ
Test: Human Neutrophil Elastase Assay
Format: biochemical
Set-up: purchased Calbiochem 324681
Details: substrate MeOSuc-Ala-Ala-Pro-Val-AMC, pH 7.5, room temperature
How it was run: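 Readout: AMC fluorescence (ex 380, em 460 nm) after 60 min room-temperature reaction with 250 nM MeOSuc-AAPV-AMC, following 15 min compound–enzyme preincubation. Buffer: Tris/NaCl pH 7.5, 0.01% BSA.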

Compound | IC50 [nM]
N#Cc1ccc(C2NC(=O)N(c3ccnc(C(F)(F)F)c3)C3=C2C(=O)CCC3)cc1 (stereo not drawn) [Example 14, 4-(2,5-Dioxo-1-(2-(trifluoromethyl)pyridin-4-yl)-1,2,3,4,5,6,7,8-octahydroquinazolin-4-yl)benzonitrile] | 70.3
N#Cc1ccc(C2C3=C(CCCC3=O)N(c3cccc(C(F)(F)F)c3)C(=O)N2CC(=O)NC2CCOC2)cc1 (stereo not drawn) [Example 36.9] | 10.6
CN1CCN(C(=O)CN2C(=O)N(c3cccc(C(F)(F)F)c3)C3=C(C(=O)CCC3)C2c2ccc(C#N)cc2)CC1=O (stereo not drawn) [Example 36.37] | 4.2
CN(C(=O)CN1C(=O)N(c2cccc(C(F)(F)F)c2)C2=C(C(=O)CCC2)C1c1ccc(C#N)cc1)C1CC1 (stereo not drawn) [Example 36.4] | 2.4
N#Cc1ccc(C2C3=C(CCCC3=O)N(c3cccc(C(F)(F)F)c3)C(=O)N2CC(=O)N2CCSCC2)cc1 (stereo not drawn) [Example 36.28] | 4.4
CN(CCN1CCCC1=O)C(=O)CN1C(=O)N(c2cccc(C(F)(F)F)c2)C2=C(C(=O)CCC2)C1c1ccc(C#N)cc1 (stereo not drawn) [Example 36.67] | 4.2
COCCNC(=O)CN1C(=O)N(c2cccc(C(F)(F)F)c2)C2=C(C(=O)CCC2)C1c1ccc(C#N)cc1 (stereo not drawn) [Example 36.5] | 13.5
CC1(C)CCC2=C(C1=O)C(c1ccc(C#N)cc1)NC(=O)N2c1cccc(C(F)(F)F)c1 (stereo not drawn) [Example 2, 4-(6,6-Dimethyl-2,5-dioxo-1-(3-(trifluoromethyl)phenyl)-1,2,3,4,5,6,7,8-octahydroquinazolin-4-yl)benzonitrile] | 44.9
CC(=O)N1CCN(C(=O)CN2C(=O)N(c3cccc(C(F)(F)F)c3)C3=C(C(=O)CCC3)C2c2ccc(C#N)cc2)CC1 (stereo not drawn) [Example 36.60] | 3.7
Cn1ncc2c1CN(C(=O)CN1C(=O)N(c3cccc(C(F)(F)F)c3)C3=C(C(=O)CCC3)C1c1ccc(C#N)cc1)C2 (stereo not drawn) [Example 35, 4-(3-(2-(1-Methylpyrrolo[3,4-c]pyrazol-5(1H,4H,6H)-yl)-2-oxoethyl)-2,5-dioxo-1-(3-(trifluoromethyl)phenyl)-1,2,3,4,5,6,7,8-octahydroquinazolin-4-yl)benzonitrile] | 1.7
N#Cc1ccc(C2NC(=O)N(c3cccc(C(F)(F)F)c3)C3=C2C(=O)CC(C(N)=O)C3)cc1 (stereo not drawn) [Example 12, 4-(4-Cyanophenyl)-2,5-dioxo-1-(3-(trifluoromethyl)phenyl)-1,2,3,4,5,6,7,8-octahydroquinazoline-7-carboxamide] | 43.4
CS(=O)(=O)c1cc(C#N)ccc1[C@@H]1C2=C(CCCC2=O)N(c2cccc(C(F)(F)F)c2)C(=O)N1C(=O)NC1CC(O)C1 (stereo partly drawn) [Example 75.11] | < 1
N#Cc1ccc(C2C3=C(CCCC3=O)N(c3cccc(C(F)(F)F)c3)C(=O)N2CC(=O)NCC2CCCOC2)cc1 (stereo not drawn) [Example 36.42] | 9.9
N#Cc1ccc(C2C3=C(CCCC3=O)N(c3cccc(C(F)(F)F)c3)C(=O)N2CC(=O)N2CCc3[nH]c(=O)ccc3C2)cc1 (stereo not drawn) [Example 36.71] | 2.2
N#Cc1ccc(C2C3=C(CCCC3=O)N(c3cccc(C(F)(F)F)c3)C(=O)N2CC(N)=O)cc1 (stereo not drawn) [Example 33, 2-(4-(4-Cyanophenyl)-2,5-dioxo-1-(3-(trifluoromethyl)phenyl)-1,2,5,6,7,8-hexahydroquinazolin-3(4H)-yl)acetamide] | 9.6
Cn1ccc(CN2C(=O)N(c3cccc(C(F)(F)F)c3)C3=C(C(=O)CCC3)C2c2ccc(C#N)cc2)cc1=O (stereo not drawn) [Example 27, 4-(1-(3-(Trifluoromethyl)phenyl)-3-((1-methyl-2-oxo-1,2-dihydropyridin-4-yl)methyl)-2,5-dioxo-1,2,3,4,5,6,7,8-octahydroquinazolin-4-yl)benzonitrile] | 10.8
CN(C)CCNC(=O)CN1C(=O)N(c2cccc(C(F)(F)F)c2)C2=C(C(=O)CCC2)C1c1ccc(C#N)cc1 (stereo not drawn) [Example 36.10] | 20
COCCNC(=O)N1C(=O)N(c2cccc(C(F)(F)F)c2)C2=C(C(=O)CCC2)[C@H]1c1ccc(C#N)cc1S(C)(=O)=O [Example 75.6] | < 1
N#Cc1ccc(C2C3=C(CCCC3=O)N(c3cccc(C(F)(F)F)c3)C(=O)N2CCCN2CCCC2)cc1 (stereo not drawn) [Example 23, 4-(1-(3-(Trifluoromethyl)phenyl)-2,5-dioxo-3-(3-(pyrrolidin-1-yl)propyl)-1,2,3,4,5,6,7,8-octahydroquinazolin-4-yl)benzonitrile] | 10.7
Cn1ccc(CNC(=O)CN2C(=O)N(c3cccc(C(F)(F)F)c3)C3=C(C(=O)CCC3)C2c2ccc(C#N)cc2)n1 (stereo not drawn) [Example 36.33] | 17.1
CS(=O)(=O)c1cc(C#N)ccc1[C@@H]1C2=C(CCCC2=O)N(c2cccc(C(F)(F)F)c2)C(=O)N1C(=O)NCC#N [Example 75.1] | < 1
N#Cc1ccc(C2C3=C(CCCC3=O)N(c3cccc(C(F)(F)F)c3)C(=O)N2CC(=O)NCc2ccco2)cc1 (stereo not drawn) [Example 36.15] | 17.5
N#Cc1ccc(C2C3=C(CCCC3=O)N(c3cccc(C(F)(F)F)c3)C(=O)N2CC(=O)N2CCNC(=O)C2)cc1 (stereo not drawn) [Example 36.21] | 2.1
CS(=O)(=O)C1CCN(C(=O)CN2C(=O)N(c3cccc(C(F)(F)F)c3)C3=C(C(=O)CCC3)C2c2ccc(C#N)cc2)C1 (stereo not drawn) [Example 36.70] | 2.3
N#Cc1ccc(C2C3=C(CCCC3=O)N(c3cccc(C(F)(F)F)c3)C(=O)N2CC2CCOC2)cc1 (stereo not drawn) [Example 25, 4-(1-(3-(Trifluoromethyl)phenyl)-2,5-dioxo-3-((tetrahydrofuran-3-yl)methyl)-1,2,3,4,5,6,7,8-octahydroquinazolin-4-yl)benzonitrile] | 8.6

Now from value to compound:

IC50 [nM] | Compound
67.1 | CN(C)C(=O)N1C(=O)N(c2cccc(C(F)(F)F)c2)C2=C(C(=O)CCC2)C1c1ccc(C#N)cc1 (stereo not drawn) [Example 38, 4-(4-Cyanophenyl)-N,N-dimethyl-2,5-dioxo-1-(3-(trifluoromethyl)phenyl)-1,2,5,6,7,8-hexahydroquinazoline-3(4H)-carboxamide]
1.2 | CN(C)C(=O)CN1C(=O)N(c2cccc(C(F)(F)F)c2)C2=C(C(=O)CCC2)C1c1ccc(C#N)cc1S(C)(=O)=O (stereo not drawn) [Example 62, 2-(4-(4-Cyano-2-(methylsulfonyl)phenyl)-2,5-dioxo-1-(3-(trifluoromethyl)phenyl)-1,2,5,6,7,8-hexahydroquinazolin-3(4H)-yl)-N,N-dimethylacetamide]
< 1 | CNC(=O)N1C(=O)N(c2cccc(C(F)(F)F)c2)C2=C(C(=O)CCC2)C1c1ccc(C#N)cc1S(C)(=O)=O (stereo not drawn) [Example 47, 4-(4-Cyano-2-(methylsulfonyl)phenyl)-N-methyl-2,5-dioxo-1-(3-(trifluoromethyl)-phenyl)-1,2,5,6,7,8-hexahydroquinazoline-3(4H)-carboxamide]
< 1 | N#Cc1ccc(C2C3=C(CCCC3=O)N(c3cccc(C(F)(F)F)c3)C(=O)N2C(=O)NCC(F)F)cc1 (stereo not drawn) [Example 70.6]
3.7 | N#Cc1ccc(C2C3=C(CCCC3=O)N(c3cccc(C(F)(F)F)c3)C(=O)N2CC(=O)N2CCN3C(=O)CCCC3C2)cc1 (stereo not drawn) [Example 36.72]
22 | COC(=O)c1cc(S(=O)(=O)N2C(=O)N(c3cccc(C(F)(F)F)c3)C3=C(C(=O)CCC3)C2c2ccc(C#N)cc2)cs1 (stereo not drawn) [Example 44, Methyl 4-(4-(4-Cyanophenylcyanophenyl)-2,5-dioxo-1-(3-(trifluoromethyl)phenyl)-1,2,5,6,7,8-hexahydroquinazolin-3(4H)-ylsulfonyl)thiophene-2-carboxylate]
15.9 | Cn1ccc(S(=O)(=O)N2C(=O)N(c3cccc(C(F)(F)F)c3)C3=C(C(=O)CCC3)C2c2ccc(C#N)cc2)n1 (stereo not drawn) [Example 44.7]
88.7 | CC(C)(C)COC(=O)N1C(=O)N(c2cccc(C(F)(F)F)c2)C2=C(C(=O)CCC2)C1c1ccc(C#N)cc1 (stereo not drawn) [Example 42, Neopentyl 4-(4-Cyanophenyl)-2,5-dioxo-1-(3-(trifluoromethyl)phenyl)-1,2,5,6,7,8-hexahydroquinazoline-3(4H)-carboxylate]
< 1 | N#Cc1ccc(C2C3=C(CCCC3=O)N(c3cccc(C(F)(F)F)c3)C(=O)N2C(=O)NC2CCS(=O)(=O)C2)cc1 (stereo not drawn) [Example 70.19]
79.1 | COC1CCN(C(=O)N2C(=O)N(c3cccc(C(F)(F)F)c3)C3=C(C(=O)CCC3)C2c2ccc(C#N)cc2)CC1 (stereo not drawn) [Example 39.18]
1.2 | CNC(=O)N1C(=O)N(c2cccc(C(F)(F)F)c2)C2=C(C(=O)CCC2)C1c1ccc(C#N)cc1 (stereo not drawn) [Example 39.1]
23.8 | CS(=O)(=O)N1C(=O)N(c2ccnc(C(F)(F)F)c2)C2=C(C(=O)CCC2)C1c1ccc(C#N)cc1 (stereo not drawn) [Example 69, 4-(3-(Methylsulfonyl)-2,5-dioxo-1-(2-(trifluoromethyl)pyridin-4-yl)-1,2,3,4,5,6,7,8-octahydroquinazolin-4-yl)benzonitrile]
3 | CCCS(=O)(=O)N1C(=O)N(c2cccc(C(F)(F)F)c2)C2=C(C(=O)CCC2)C1c1ccc(C#N)cc1 (stereo not drawn) [Example 44.2]
3.4 | N#Cc1ccc(C2C3=C(CCCC3=O)N(c3cccc(C(F)(F)F)c3)C(=O)N2S(=O)(=O)CCCC(=O)O)cc1 (stereo not drawn) [Example 45, 4-(4-(4-Cyanophenyl)-2,5-dioxo-1-(3-(trifluoromethyl)phenyl)-1,2,5,6,7,8-hexahydroquinazolin-3(4H)-ylsulfonyl)butanoic acid]
6 | N#Cc1ccc(C2C3=C(CCCC3=O)N(c3cccc(C(F)(F)F)c3)C(=O)N2C(N)=O)cc1 (stereo not drawn) [Example 70, 4-(4-Cyanophenyl)-2,5-dioxo-1-(3-(trifluoromethyl)phenyl)-1,2,5,6,7,8-hexahydroquinazoline-3(4H)-carboxamide]
15.6 | N#Cc1ccc(C2C3=C(CCCC3=O)N(c3cccc(C(F)(F)F)c3)C(=O)N2S(=O)(=O)c2ccco2)cc1 (stereo not drawn) [Example 44.4]
1.9 | CC(C)NC(=O)N1C(=O)N(c2ccnc(C(F)(F)F)c2)C2=C(C(=O)CCC2)C1c1ccc(C#N)cc1 (stereo not drawn) [Example 76.3]

— patent publication US9115093B2, “Substituted bicyclic dihydropyrimidinones and their use as inhibitors of neutrophil elastase activity” (Boehringer Ingelheim International GmbH, priority 2013, dated 2015)
